Laboratory results from patent US20090069302A1 (SMITHKLINE BEECHAM CORPORATION, priority 2006, published 2009).

Biological target: T1, AXOR109 (Homo sapiens, UniProt Q8TDU6)
T1 construct: expressed in transfected cells; host or cells: melanophore cells, transfected by electroporation
T1 sequence (Q8TDU6 1-330): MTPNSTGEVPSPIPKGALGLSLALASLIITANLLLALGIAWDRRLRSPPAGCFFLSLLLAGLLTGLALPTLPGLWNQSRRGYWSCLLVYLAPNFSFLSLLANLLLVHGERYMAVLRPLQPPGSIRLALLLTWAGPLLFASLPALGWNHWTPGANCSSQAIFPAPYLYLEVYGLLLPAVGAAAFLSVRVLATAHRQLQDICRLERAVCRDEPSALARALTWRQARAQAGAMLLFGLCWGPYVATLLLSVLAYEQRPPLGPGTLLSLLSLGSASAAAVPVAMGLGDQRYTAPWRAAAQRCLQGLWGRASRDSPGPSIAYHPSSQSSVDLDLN
Test: Human AXOR109/Melanophore Assay
Format: cell-based
Details: melanophore assay; for Emax: 1 h, normalized to alpha-MSH system max; for EC50: AXOR109 transfected melanophores
Experimental: AXOR109 is a Gs-coupled receptor and therefore increases intracellular cAMP leading to melanosome dispersion. Compounds of the present invention were characterized in a melanophore assay as described in Jayawickreme C K, et al., Current Protocols in Pharmacology (2005) 12.9.1-12.9.16. Briefly, melanophore cells are transfected by electroporation with AXOR109 expressing cDNA. Cells are then plated in 384 well clear bottom plates at 8E3 cells per well in 50 μl of conditioned fibroblast media (CFM). Compounds to be tested are serially diluted 3-fold in DMSO and further diluted 1:100 with melanophore assay buffer (MAB)+10 nM Melatonin to yield 11 point concentration response curves. Following 2 hour incubation with MAB+1% DMSO+10 nM Melatonin, initial transmittance is read on a TwisterII/Spectramax plate reader. Compounds are then added to the cells and incubated for 1 hour, and final transmittance is read as before. Results are compared to vehicle (MAB+1% DMSO+10 nM Melatonin) and to a positive control (MAB+1% DMSO+10 nM Melatonin+200 nM alpha-MSH). Data are calculated for each well as follows: 1-(Transmitance-final/Transmitance-initial). Each well result is then normalized to alpha-MSH, the system max control for Gs/Gq coupled receptors using the following equation: (ObjX−Control1)/(Control2−Control1)*100. The percent system max is used to generate the pEC50 using the equation: y=((Vmax*x̂n)/(K̂n+x̂n))+Y2. Acceptable Z-prime values should be >0.4. Compounds of the present invention have a pEC50≧5.0 in the above described assay.

SMILES | Emax [%] | EC50 [µM]
CCN(C[C@@H]1CCCN1S(=O)(=O)c1ccc(OC)c(OC)c1)S(=O)(=O)c1ccc(OC)c(OC)c1 [Example 95, N-[((2S)-1-{[3,4-bis(methyloxy)phenyl]sulfonyl}-2-pyrrolidinyl)methyl]-N-ethyl-3,4-bis(methyloxy)benzenesulfonamide] | 76 to 100 | 0.126 to 1
COc1ccc(S(=O)(=O)N2CC(C)N(S(=O)(=O)c3ccc(OC)c(OC)c3)C(C)C2C)cc1OC (stereo not shown) [Example 39, 1,4-bis{[3,4-bis(methyloxy)phenyl]sulfonyl}-2,3,5-trimethylpiperazine] | 0 to 50 | 1.26 to 10
COc1ccc(S(=O)(=O)N2CCCN(S(=O)(=O)c3ccc(OC)c(OC)c3)C(C)C2)cc1OC (stereo not shown) [Example 49, 1,4-bis{[3,4-bis(methyloxy)phenyl]sulfonyl}-2-methylhexahydro-1H-1,4-diazepine] | 51 to 75 | 1.26 to 10
COc1ccc(S(=O)(=O)N(C)C[C@@H]2CCCN2S(=O)(=O)c2ccc(OC)c(OC)c2)cc1OC [Example 94, N-[((2S)-1-{[3,4-bis(methyloxy)phenyl]sulfonyl}-2-pyrrolidinyl)methyl]-N-methyl-3,4-bis(methyloxy)benzenesulfonamide] | 76 to 100 | 1.26 to 10
COc1ccc(S(=O)(=O)N2C[C@@H](C)N(S(=O)(=O)c3ccc(OC)c(OC)c3)[C@@H](C)C2)cc1OC [Example 79, cis-1,4-bis{[3,4-bis(methyloxy)phenyl]sulfonyl}-2,6-dimethylpiperazine] | > 100 | < 0.126
COc1ccc(S(=O)(=O)N2[C@H](C)CN(S(=O)(=O)c3ccc(-c4cnco4)cc3)C[C@@H]2C)cc1OC [Example 34, 1-{[3,4-bis(methyloxy)phenyl]sulfonyl}-2,6-cis-dimethyl-4-{[4-(1,3-oxazol-5-yl)phenyl]sulfonyl}piperazine] | 51 to 75 | 1.26 to 10
COc1ccc(S(=O)(=O)N2C[C@H](C)N(S(=O)(=O)c3ccc(OC)c(OC)c3)C[C@@H]2C)cc1OC [Example 47, (2S,5S)-1,4-bis{[3,4-bis(methyloxy)phenyl]sulfonyl}-2,5-dimethylpiperazine] |  | < 0.126
COc1ccc(S(=O)(=O)N(C)CCN(C)S(=O)(=O)c2ccc(OC)c(OC)c2)cc1F [Example 11, N-{2-[{[3,4-bis(methyloxy)phenyl]sulfonyl}(methyl)amino]ethyl}-3-fluoro-N-methyl-4-(methyloxy)benzenesulfonamide] | 0 to 50 | 0.126 to 1
COc1ccc(S(=O)(=O)N(C[C@H]2CCCN2S(=O)(=O)c2ccc(OC)c(OC)c2)C(C)C)cc1OC [Example 100, N-[((2R)-1-{[3,4-bis(methyloxy)phenyl]sulfonyl}-2-pyrrolidinyl)methyl]-N-(1-methylethyl)-3,4-bis(methyloxy)benzenesulfonamide] | > 100 | 0.126 to 1
COc1ccc(S(=O)(=O)N(C)CCN(C)S(=O)(=O)c2ccc3c(c2)OCCCO3)cc1OC [Example 73, N-{2-[{[3,4-bis(methyloxy)phenyl]sulfonyl}(methyl)amino]ethyl}-N-methyl-3,4-dihydro-2H-1,5-benzodioxepin-7-sulfonamide] | 76 to 100 | 1.26 to 10
COc1ccc(S(=O)(=O)N(C)CCN(C)S(=O)(=O)c2ccc(OC)c(OC(F)(F)F)c2)cc1OC [Example 31, N-methyl-N-{2-[methyl({4-(methyloxy)-3 [(trifluoromethyl)oxy]phenyl}sulfonyl)amino]ethyl}-3,4-bis(methyloxy)benzenesulfonamide] | 0 to 50 | 0.126 to 1
COc1cccc(S(=O)(=O)N2[C@H](C)CN(S(=O)(=O)c3ccc(OC)c(OC)c3)C[C@@H]2C)c1 [Example 80] | 51 to 75 | 1.26 to 10
COc1ccc(S(=O)(=O)N2CCN(S(=O)(=O)c3ccc(OC)c(OC)c3)C(C3CCCCC3)C2)cc1OC (stereo not shown) [Example 24, 1,4-bis{[3,4-bis(methyloxy)phenyl]sulfonyl}-2-cyclohexylpiperazine] | 51 to 75 | 1.26 to 10
CCCN([C@@H]1CCN(S(=O)(=O)c2ccc(OC)c(OC)c2)C1)S(=O)(=O)c1ccc(OC)c(OC)c1 [Example 59, N-((3R)-1-{[3,4-bis(methyloxy)phenyl]sulfonyl}-3-pyrrolidinyl)-3,4-bis(methyloxy)-N-propylbenzenesulfonamide] | 76 to 100 | 0.126 to 1
COc1ccc(S(=O)(=O)N2CCN(S(=O)(=O)c3ccc(OC)c(OC)c3)CC(F)C2)cc1OC [Example 52, 1,4-bis{[3,4-bis(methyloxy)phenyl]sulfonyl}-6-fluorohexahydro-1H-1,4-diazepine] | 76 to 100 | 0.126 to 1
COc1ccc(S(=O)(=O)N(C)CCN(C)S(=O)(=O)c2ccc3c(c2)OCCN3C)cc1OC [Example 12, N-methyl-N-{2-[{[3,4-bis(methyloxy)phenyl]sulfonyl}(methyl)amino]ethyl}-4-methyl-3,4-dihydro-2H-1,4-benzoxazine-7-sulfonamide] | 76 to 100 | 1.26 to 10
COc1ccc(S(=O)(=O)N2CCN(S(=O)(=O)c3ccc(OC)c(OC)c3)C2=O)cc1OC [Example 23, 1,3-bis{[3,4-bis(methyloxy)phenyl]sulfonyl}-2-imidazolidinone] | 0 to 50 | 1.26 to 10
COc1ccc(S(=O)(=O)N2CCN(S(=O)(=O)c3ccc(OC)c(OC)c3)C(=O)C2)cc1OC [Example 76, 1,4-bis{[3,4-bis(methyloxy)phenyl]sulfonyl}-2-piperazinone] | 51 to 75 | 1.26 to 10
COc1ccc(S(=O)(=O)N(C)C[C@H]2CCCN2S(=O)(=O)c2ccc(OC)c(OC)c2)cc1OC [Example 97, N-[((2R)-1-{[3,4-bis(methyloxy)phenyl]sulfonyl}-2-pyrrolidinyl)methyl]-N-methyl-3,4-bis(methyloxy)benzenesulfonamide] | 76 to 100 | < 0.126
COc1ccc(S(=O)(=O)N2C[C@@H](C)N(S(=O)(=O)c3ccc(OC)c(OC)c3)[C@@H](C)C2)cc1 [Example 35, 1-{[3,4-bis(methyloxy)phenyl]sulfonyl}-2,6-cis-dimethyl-4-{[4-(methyloxy)phenyl]sulfonyl}piperazine] | 51 to 75 | 0.126 to 1
COc1ccc(S(=O)(=O)N2CCC(N(CC(C)C)S(=O)(=O)c3ccc(OC)c(OC)c3)C2)cc1OC (stereo not shown) [Example 57, N-(1-{[3,4-bis(methyloxy)phenyl]sulfonyl}-3-pyrrolidinyl)-3,4-bis(methyloxy)-N-(2-methylpropyl)benzenesulfonamide] | 51 to 75 | 1.26 to 10
COc1ccc(S(=O)(=O)N2CCN(S(=O)(=O)c3ccc(OC)c(OC)c3)C(C)(C)C2)cc1OC [Example 50, 1,4-bis{[3,4-bis(methyloxy)phenyl]sulfonyl}-2,2-dimethylpiperazine] | 76 to 100 | 0.126 to 1
COc1ccc(S(=O)(=O)NCCN(C)S(=O)(=O)c2ccc(OC)c(OC)c2)cc1OC [Example 42, N-[2-({[3,4-bis(methyloxy)phenyl]sulfonyl}amino)ethyl]-N-methyl-3,4-bis(methyloxy)benzenesulfonamide] | 51 to 75 | 1.26 to 10
COc1ccc(S(=O)(=O)N2C[C@H](C)N(S(=O)(=O)c3ccc4c(c3)OCO4)C[C@@H]2C)cc1OC [Example 70, (2S,5S)-1-(1,3-benzodioxol-5-ylsulfonyl)-4-{[3,4-bis(methyloxy)phenyl]sulfonyl}-2,5-dimethylpiperazine] | > 100 | 0.126 to 1
COc1ccc(S(=O)(=O)N2CCN(S(=O)(=O)c3ccc(OC)c(OC)c3)CC2)cc1 [Example 6, 1-{[3,4-bis(methyloxy)phenyl]sulfonyl}-4-{[4-(methyloxy)phenyl]sulfonyl}piperazine] | 0 to 50 | 0.126 to 1
COc1ccc(S(=O)(=O)N(C)CCN(C2CC2)S(=O)(=O)c2ccc(OC)c(OC)c2)cc1OC [Example 88] | 76 to 100 | 0.126 to 1
CCN([C@@H]1CCN(S(=O)(=O)c2ccc(OC)c(OC)c2)C1)S(=O)(=O)c1ccc(OC)c(OC)c1 [Example 60, N-((3R)-1-{[3,4-bis(methyloxy)phenyl]sulfonyl}-3-pyrrolidinyl)-N-ethyl-3,4-bis(methyloxy)benzenesulfonamide] | 76 to 100 | < 0.126
COc1ccc(S(=O)(=O)N2CCN(S(=O)(=O)c3ccc(OC)c(OC)c3)CC(=O)C2)cc1OC [Example 51, 1,4-bis{[3,4-bis(methyloxy)phenyl]sulfonyl}hexahydro-6H-1,4-diazepin-6-one] | 76 to 100 | 1.26 to 10
